According to patent US7348304B1, “Fragrance material” (priority 2004, dated 2008):
Like-named read-outs stand apart in the source and are kept apart here.

Legend:
[1] = Odor character / fragrance assessment of the material and fractions
subjects = test: Determination of approximate aqueous odor threshold (paired beakers, sniffing); format: in vivo; set-up: key: “X” means correct positive identification; “-” means unable to identify
Experimental: 2 mg of the compound of the invention according to Example I were dissolved in 1.0 ml ethanol and serial dilutions made in deionized water to give test solutions of the compound at concentrations of 100, 20, 4, and 1 ppb.
Pairs of loosely-covered beakers were presented to three subjects, one beaker containing deionized water and the other a test solution. The subjects were asked to identify the beaker containing the test solution by removing the covers and sniffing, with the following results (“X” means correct positive identification, “-” means unable to identify): […]

[2] = Assessment of stability of the compound (olfactory assessment of stored aqueous solution); format: physicochemical
Experimental: 50 ml of a 250-ppb aqueous solution of the compound of the invention according to Example I was held in a covered 100 ml glass weighing bottle for seven months. Environmental conditions were ambient room light (fluorescent and indirect sunlight during daytime; dark at night) and temperature (16-26° C.). The bottle was opened approximately bi-weekly, admitting fresh air and allowing olfactory assessment of the odor strength.

[3] = prior-art characterisation; cited from earlier work

For `C[C@H]1C(=O)C[C@@H]2[C@@H]3[C@H]1[C@@]2(C)CCCC3(C)C` [The C-9 epimer, (1R,2S,7R,8R,9R)-2,6,6,9-tetramethyltricyclo-[5.4.0.0^2,8]undecan-10-one, reference compound], the odor character [1] was “no distinctive or useful fragrance properties”.

For `C[C@@H]1C(=O)C[C@@H]2[C@@H]3[C@H]1[C@@]2(C)CCCC3(C)C` [the compound of the invention, (1R,2S,7R,8R,9S)-2,6,6,9-tetramethyltricyclo[5.4.0.0^2,8]undecan-10-one], the “identification of the beaker containing the test solution” value (from here on “identification”) (subjects; 1 ppb in deionized water, Subject 3) was “X”, the “identification” value (subjects; 4 ppb in deionized water, Subject 1) was “X” and the “identification” value (subjects; 4 ppb in deionized water, Subject 3) was “X”. The “identification” value (subjects; 20 ppb in deionized water, Subject 1) was “X”, the “identification” value (subjects; 20 ppb in deionized water, Subject 3) was “X” and the “identification” value (subjects; 100 ppb in deionized water, Subject 1) was “X”. For the same compound, the “identification” value (subjects; 100 ppb in deionized water, Subject 2) was “X”, the “identification” value (subjects; 100 ppb in deionized water, Subject 3) was “X” and the “odor intensity after storage” value ([2]; 250-ppb aqueous solution, seven months, ambient room light, 16-26° C., opened approximately bi-weekly) was “No decrease in odor intensity”. For the same compound, the stability ([2]; action of light, oxygen, and moisture) was “stable against the action of light, oxygen, and moisture”, the odor character ([1]; listed as Example III) was “Cedar, woody, cigar box, tobacco, slightly animal—civet. Long-lasting in dry-down” and the odor character ([1]; listed as The compound) was “intense, pleasant and characteristic cedar wood odor”.

For `CC(=O)C1=C(C)[C@@H]2C[C@@]3(C1)[C@H](C)CC[C@H]3C2(C)C` [methyl cedryl ketone], the odor [3] is given as “musk-woody”.

In the case of `CCC(=O)C1CCC=CCCC=CCCC1` (centres unmarked) [1-(4,8-cyclododecadienyl)-1-propanone], the odor [3] is given as “cedarwood, amber, pepper”.

In the case of `C=C(C[C@H](C)CO)[C@H]1CC=C(C)C1(C)C` [(−)-(1′R,2S)-2-methyl-4-(2′,2′,3′-trimethyl-3′-cyclopenten-1′-yl)-4-penten-1-ol], the odor [3] is given as “sandalwood; cedar”.

In the case of `CC(=O)O[C@]1(C)CC[C@@]23C[C@@H]1C(C)(C)[C@@H]2CC[C@H]3C` [cedryl acetate], the odor [3] is given as “woody-vetiver”.

For `CO[C@@]1(C)CC[C@@]23C[C@@H]1C(C)(C)[C@@H]2CC[C@H]3C` [methyl cedryl ether], the odor [3] is given as “woody-amber”.

For `CC(=O)/C=C/[C@@H]1C(C)=CCCC1(C)C` [(S)-alpha-ionone], the odor [3] is given as “cedarwood, raspberry”.

For `CC1CCC2C(C)(C)C3CC12CC1OC13C` (centres unmarked) [cedrene epoxide], the odor [3] is given as “woody-amber-camphor”.
